Key:
[1] = molecular target: Tubulin (Bos taurus) (UniProt Q6B856+Q862L2+Q862F3); assay: Concentration which causes polymerization of 50% of the tubulin present in 15 min at 37 degree C was tested in vitro relative to paclitaxel (1); format: functional
[2] = test system: B16; assay: Concentration which produces 50% inhibition of proliferation of B16 melanoma cytotoxic cells after 40h of incubation was tested in vitro relative to paclitaxel (1); format: functional, Mus musculus

Row | Structure (SMILES) | Ratio [1] | Ratio [2]
1 | CC(=O)O[C@H]1C(=O)[C@]2(C)[C@@H](O)CC3OC[C@@]3(OC(C)=O)[C@H]2[C@H](OC(=O)c2cccs2)[C@]2(O)C[C@H](OC(=O)[C@H](O)[C@@H](NC(=O)c3ccccc3)c3ccccc3)C(C)=C1C2(C)C (stereo partly drawn) | 1.1 | 3.8
2 | CC(=O)O[C@H]1C(=O)[C@]2(C)[C@@H](O)CC3OC[C@@]3(OC(C)=O)[C@H]2[C@H](OC(=O)c2ccoc2)[C@]2(O)C[C@H](OC(=O)[C@H](O)[C@@H](NC(=O)c3ccccc3)c3ccccc3)C(C)=C1C2(C)C (stereo partly drawn) | 2.1 | 8.2
3 | CC(=O)O[C@H]1C(=O)[C@]2(C)[C@@H](O)CC3OC[C@@]3(OC(C)=O)[C@H]2[C@H](OC(=O)c2ccccn2)[C@]2(O)C[C@H](OC(=O)[C@H](O)[C@@H](NC(=O)c3ccccc3)c3ccccc3)C(C)=C1C2(C)C (stereo partly drawn) | 2.8 | 8.7
4 | CC(=O)O[C@H]1C(=O)[C@]2(C)[C@@H](O)CC3OC[C@@]3(OC(C)=O)[C@H]2[C@H](OC(=O)c2ccsc2)[C@]2(O)C[C@H](OC(=O)[C@H](O)[C@@H](NC(=O)c3ccccc3)c3ccccc3)C(C)=C1C2(C)C (stereo partly drawn) | 1.4 | 2.1

Now from value to compound, other results behind:

Row | Ratio [1] | Structure (SMILES) | Ratio [2]
5 | 4 | CC(=O)O[C@H]1C(=O)[C@]2(C)[C@@H](O)CC3OC[C@@]3(OC(C)=O)[C@H]2[C@H](OC(=O)c2cccnc2)[C@]2(O)C[C@H](OC(=O)[C@H](O)[C@@H](NC(=O)c3ccccc3)c3ccccc3)C(C)=C1C2(C)C (stereo partly drawn) | >36
6 | 7.3 | CC(=O)O[C@H]1C(=O)[C@]2(C)[C@@H](O)CC3OC[C@@]3(OC(C)=O)[C@H]2[C@H](OC(=O)c2ccncc2)[C@]2(O)C[C@H](OC(=O)[C@H](O)[C@@H](NC(=O)c3ccccc3)c3ccccc3)C(C)=C1C2(C)C (stereo partly drawn) | >36
7 | 2.6 | CC(=O)O[C@H]1C(=O)[C@]2(C)[C@@H](O)CC3OC[C@@]3(OC(C)=O)[C@H]2[C@H](OC(=O)c2cccn2C)[C@]2(O)C[C@H](OC(=O)[C@H](O)[C@@H](NC(=O)c3ccccc3)c3ccccc3)C(C)=C1C2(C)C (stereo partly drawn) | 2.6
8 | 2.4 | CC(=O)O[C@H]1C(=O)[C@]2(C)[C@@H](O)CC3OC[C@@]3(OC(C)=O)[C@H]2[C@H](OC(=O)c2ccco2)[C@]2(O)C[C@H](OC(=O)[C@H](O)[C@@H](NC(=O)c3ccccc3)c3ccccc3)C(C)=C1C2(C)C (stereo partly drawn) | 14
9 | 1 | CC(=O)O[C@H]1C(=O)[C@@]2(C)[C@H]([C@H](OC(=O)c3ccccc3)[C@]3(O)C[C@H](OC(=O)[C@H](O)[C@@H](NC(=O)c4ccccc4)c4ccccc4)C(C)=C1C3(C)C)[C@]1(OC(C)=O)CO[C@@H]1C[C@@H]2O [PACLITAXEL] | 1

Reference: ChEMBL document CHEMBL1150456, “Synthesis of 2-O-heteroaroyl taxanes: evaluation of microtubule assembly promotion and cytotoxicity” (1995)
